Read-outs that look alike come from different tables or passages of the source. Bounds are passed on as bounds.

Data set [1] in a line: in vivo. Type of data set: in vivo, rat (Sprague Dawley). Conditions: male SD rat; for Vd / clearance / Cmax / half-life / AUC(0-t): Sprague Dawley, in vivo; for Cmax / C 8 h: IV 1 mg/kg / PO 10 mg/kg study; for AUC(0-t): read-out: PO AUClast. Here is the method:
The pharmacokinetics of compounds were studied in vivo in rats at doses of 1 mg/kg (IV) and 10 mg/kg (PO).
Male rats [Sprague Dawley (SD)] surgically prepared with a jugular vein cannula were treated with experimental compounds via intravenous administration (IV; n=3; 1 mg/kg) or oral administration (PO; n=3; 10 mg/kg). Compounds were formulated as a solution in 40:60 dimethylacetamide:saline (IV administration) and a solution of 10% DMSO, 20% cremaphor in water (70%) (PO administration). […] Serial blood samples were collected via the cannula at 0.02, 0.08, 0.25, 0.5, 1, 2, 4, 6, 8 and 24 h post IV dosing of compound, and at 0.08, 0.25, 0.5, 1, 2, 4, 6, 8 and 24 h post oral dosing of compound, and plasma was prepared by centrifugation and stored immediately at −80° C. Samples were subsequently thawed, prepared for analysis by protein precipitation with acetonitrile, and analysed by tandem LCMS using electrospray ionisation using a matrix-matched calibration curve. PK parameters were calculated from the resulting data.

Data set [2] is described as follows: Cell cytotoxicity (CC50). As to conditions: human; mean of at least two experiments. Type of data set: cell-based. In a few lines:
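Values are means of ≥2 independent runs, rounded to whole units, from 4-parameter variable-slope curve fits. Toxicity measured in Hep-G2 cells run alongside RSV plaque-reduction assays.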

The mark [3] stands for this setting: IV 1 mg/kg, read-out: IV t1/2 (converted).
Setting [4] is: PO 10 mg/kg, read-out: PO t1/2 (converted).

As usually defined, the Vd is the apparent volume that relates the amount in the body to the concentration in plasma or blood. In general, clearance refers to the volume of plasma or blood freed of the substance per unit of time. A word on the Cmax: it is the peak of the concentration-time curve. One may read the CC50 as the concentration that lowers cell viability or growth by half. Read a high CC50 as lower toxicity to the cells. In data set [1] (IV 1 mg/kg), `Cc1ccc(-c2nn3cccnc3c2C(=O)N[C@H]2N=C(c3ccccc3)c3cccc(F)c3NC2=O)cn1` [Example 50, N-[(3S)-9-fluoro-2-oxo-5-phenyl-1,3-dihydro-1,4-benzodiazepin-3-yl]-2-(6-methylpyridin-3-yl)pyrazolo[1,5-a]pyrimidine-3-carboxamide] returned a Vd of 0.94 L/kg and a clearance of 13 mL/min/kg. For the same compound, in data set [1], the Cmax amounted to 2040 ng/mL and the “C 8 h” value was 1003 ng/mL. Besides, the half-life in data set [1] (setting [3]) is 1.2 h. In data set [1] (PO 10 mg/kg), the AUC(0-t) was determined as 20000 ng·h/mL. The half-life in data set [1] (setting [4]) is 2.4 h. This compound also had a F in data set [1] (IV 1 mg/kg, PO 10 mg/kg) of 152%. The compound also had a CC50 in data set [2] above 25 µM.

As to `O=C(N[C@H]1N=C(c2ccccc2)c2ccccc2NC1=O)c1c(-c2ccccc2F)nn2cccnc12` [Example 2, 2-(2-Fluorophenyl)-N-[(3S)-2-oxo-5-phenyl-1,3-dihydro-1,4-benzodiazepin-3-yl]pyrazolo[1,5-a]pyrimidine-3-carboxamide], in data set [1] (IV 1 mg/kg), the Vd is 1.3 L/kg and the clearance turned out to be 5 mL/min/kg. Also, in data set [1], the Cmax came out at 2410 ng/mL and the “C 8 h” value amounted to 2290 ng/mL. Besides, the half-life in data set [1] (setting [3]) was 3.1 h. In addition, the AUC(0-t) in data set [1] (PO 10 mg/kg) was 34200 ng·h/mL. In addition, in data set [1] (IV 1 mg/kg, PO 10 mg/kg), the F came to 103%. This compound displayed a CC50 in data set [2] above 25 µM.

Regarding `CCc1ccc(-c2nn3cccnc3c2C(=O)N[C@H]2N=C(c3ccccc3)c3cccc(F)c3NC2=O)cn1` [Example 55], in data set [1] (IV 1 mg/kg), the Vd was 1.2 L/kg and the clearance is 14.3 mL/min/kg. In addition, in data set [1], the peak level (Cmax) was 1420 ng/mL and the “C 8 h” value turned out to be 753 ng/mL. Besides, in data set [1] (setting [3]), the half-life was 2 h. In addition, the AUC(0-t) in data set [1] (PO 10 mg/kg) stood at 14700 ng·h/mL. In addition, the half-life in data set [1] (setting [4]) is 2.5 h. Also, the F in data set [1] (IV 1 mg/kg, PO 10 mg/kg) is 113%. The same compound had a CC50 in data set [2] above 25 µM.

The record behind these values is patent US11634425B2, “Pharmaceutical compounds” (priority 2019, dated 2023).
